# Source: PubChem BioAssay AID328 (DTP/NCI, 2004)
# Where “and” joins values, the source holds several entries; their conditions need not be identical. Equal values may be shown once. Inconclusive results and toxic doses are left out.
# Tested on: BDF1 mice, P388 leukemia ip, median survival T/C
# Assay: NCI In Vivo Anticancer Drug Screen. Data for tumor model P388 Leukemia (intraperitoneal) in B6D2F1 (BDF1) mice
# Conditions: endpoint: median survival time, higher = longer survival
# Procedure, shortened: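 Steps: implant the tumour, treat one group with compound and another with vehicle, record survival, then divide treated by control.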
# [1] = dose: 100.0 mg/kg/injection, schedule: Q01DX009 (ip), vehicle: Klucel (hydroxypropylcellulose) (HPC)
# [2] = dose: 100.0 mg/kg/injection, schedule: Q04DX003 (ip), vehicle: Klucel (hydroxypropylcellulose) (HPC)
# [3] = dose: 200.0 mg/kg/injection, schedule: Q01DX009 (ip), vehicle: Klucel (hydroxypropylcellulose) (HPC)
# [4] = dose: 200.0 mg/kg/injection, schedule: Q04DX003 (ip), vehicle: Klucel (hydroxypropylcellulose) (HPC)
# [5] = dose: 400.0 mg/kg/injection, schedule: Q01DX009 (ip), vehicle: Klucel (hydroxypropylcellulose) (HPC)
# [6] = dose: 400.0 mg/kg/injection, schedule: Q04DX003 (ip), vehicle: Klucel (hydroxypropylcellulose) (HPC)
# [7] = dose: 12.5 mg/kg/injection, schedule: Q01DX009 (ip), vehicle: saline
# [8] = dose: 25.0 mg/kg/injection, schedule: Q01DX009 (ip), vehicle: saline
# [9] = dose: 100.0 mg/kg/injection, schedule: Q04DX003 (ip), vehicle: saline
# [10] = dose: 200.0 mg/kg/injection, schedule: Q04DX003 (ip), vehicle: saline
# [11] = dose: 100.0 mg/kg/injection, schedule: Q04DX003 (ip), vehicle: saline with Tween-80
# [12] = dose: 100.0 mg/kg/injection, schedule: Q01DX009 (ip), vehicle: saline with Tween-80
# [13] = dose: 25.0 mg/kg/injection, schedule: Q04DX003 (ip), vehicle: saline with Tween-80
structure (smiles),measurement,setting,value
O=C1C(CO)=C[C@@H](O)[C@H]2O[C@@H]12,T/C,"dose: 0.75 mg/kg/injection, schedule: Q01DX010 (ip), vehicle: saline",95 % of control
same,T/C,"dose: 1.5 mg/kg/injection, schedule: Q01DX010 (ip), vehicle: saline",110 % of control
same,T/C,"dose: 3.0 mg/kg/injection, schedule: Q01DX010 (ip), vehicle: saline",95 % of control and 120 % of control
same,T/C,"dose: 6.0 mg/kg/injection, schedule: Q01DX010 (ip), vehicle: saline",95 % of control
same,T/C,"dose: 6.2 mg/kg/injection, schedule: Q01DX001 (ip), vehicle: saline",155 % of control
same,T/C,"dose: 12.0 mg/kg/injection, schedule: Q01DX010 (ip), vehicle: saline",100 % of control
same,T/C,"dose: 12.5 mg/kg/injection, schedule: Q01DX001 (ip), vehicle: saline",160 % of control
same,T/C,"dose: 24.0 mg/kg/injection, schedule: Q01DX010 (ip), vehicle: saline",114 % of control and 115 % of control
same,T/C,"dose: 25.0 mg/kg/injection, schedule: Q01DX001 (ip), vehicle: saline",150 % of control
same,T/C,"dose: 50.0 mg/kg/injection, schedule: Q01DX010 (ip), vehicle: saline",110 % of control
same,T/C,"dose: 96.0 mg/kg/injection, schedule: Q01DX010 (ip), vehicle: saline",160 % of control and 161 % of control
same,T/C,"dose: 192.0 mg/kg/injection, schedule: Q01DX010 (ip), vehicle: saline",160 % of control
same,T/C,"dose: 384.0 mg/kg/injection, schedule: Q01DX010 (ip), vehicle: saline",175 % of control
OCCCNc1cccc2ccccc12,T/C,[1],105 % of control
same,T/C,[2],100 % of control
same,T/C,[3],100 % of control
same,T/C,[4],100 % of control
same,T/C,[5],110 % of control
same,T/C,[6],100 % of control
COC(COC(N)=O)C1=C(N2CC2)C(=O)C(C)=C(N2CC2)C1=O (configuration not stated),T/C,"dose: 0.03 mg/kg/injection, schedule: Q01DX009 (ip), vehicle: saline",123 % of control
same,T/C,"dose: 0.12 mg/kg/injection, schedule: Q01DX009 (ip), vehicle: saline",154 % of control
same,T/C,"dose: 0.25 mg/kg/injection, schedule: Q01DX009 (ip), vehicle: saline",190 % of control
same,T/C,"dose: 0.5 mg/kg/injection, schedule: Q01DX009 (ip), vehicle: saline",258 % of control
CCn1cnc2c(=S)nc[nH]c21,T/C,"dose: 15.6 mg/kg/injection, schedule: Q01DX010 (ip), vehicle: saline",100 % of control and 115 % of control
same,T/C,"dose: 31.3 mg/kg/injection, schedule: Q01DX010 (ip), vehicle: saline",90 % of control and 105 % of control
same,T/C,"dose: 62.5 mg/kg/injection, schedule: Q01DX010 (ip), vehicle: saline",104 % of control and 115 % of control
CNC1C(OC2C(OC3C(O)C(O)C(O)C(O)C3O)OC(C)C2(O)CO)OC(CO)C(O)C1O (configuration not stated) (tested in a mixture with another compound),T/C,"dose: 100.0 mg/kg/injection, schedule: Q01DX009 (ip), vehicle: saline",100 % of control
same,T/C,"dose: 200.0 mg/kg/injection, schedule: Q01DX009 (ip), vehicle: saline",100 % of control
same,T/C,"dose: 400.0 mg/kg/injection, schedule: Q01DX009 (ip), vehicle: saline",100 % of control
OCC1C(CO)C2(Cl)C(Cl)=C(Cl)C1(Cl)C2(Cl)Cl (configuration not stated),T/C,[1],100 % of control
same,T/C,[2],100 % of control
same,T/C,[3],118 % of control
same,T/C,[4],95 % of control
same,T/C,[5],100 % of control
same,T/C,[6],109 % of control
N/C(=N\O)c1nn(C2OC(CO)C(O)C2O)c2ncnc(N)c12 (configuration not stated),T/C,[7],102 % of control
same,T/C,"dose: 12.5 mg/kg/injection, schedule: Q04DX003 (ip), vehicle: saline",115 % of control
same,T/C,[8],114 % of control
same,T/C,"dose: 25.0 mg/kg/injection, schedule: Q04DX003 (ip), vehicle: saline",105 % of control and 116 % of control
same,T/C,"dose: 50.0 mg/kg/injection, schedule: Q04DX003 (ip), vehicle: saline",110 % of control and 112 % of control
same,T/C,[9],105 % of control and 116 % of control
same,T/C,[10],112 % of control
CCOC(=O)c1ccnc2ccc(O)cc12,T/C,[11],91 % of control
same,T/C,"dose: 200.0 mg/kg/injection, schedule: Q04DX003 (ip), vehicle: saline with Tween-80",108 % of control
same,T/C,"dose: 400.0 mg/kg/injection, schedule: Q04DX003 (ip), vehicle: saline with Tween-80",95 % of control
NC(=O)NOCC(N)C(=O)O (configuration not stated),T/C,[9],104 % of control
same,T/C,[10],100 % of control
same,T/C,"dose: 400.0 mg/kg/injection, schedule: Q04DX003 (ip), vehicle: saline",104 % of control
CC(=O)OCC(=O)[C@@]1(O)CC[C@H]2[C@@H]3CCC4=CC(=O)[C@H](C)C[C@]4(C)[C@H]3[C@@H](O)C[C@@]21C,T/C,[1],118 % of control
same,T/C,[3],109 % of control
same,T/C,[5],118 % of control
CC(=O)Oc1c(Cl)c(Cl)c(C#N)c(Cl)c1C#N,T/C,"dose: 50.0 mg/kg/injection, schedule: Q01DX009 (ip), vehicle: saline with Tween-80",111 % of control
same,T/C,[12],122 % of control
CC1CN(Cc2cccc(C#N)c2)CC(C)N1 (configuration not stated),T/C,"dose: 6.25 mg/kg/injection, schedule: Q01DX009 (ip), vehicle: water",95 % of control
same,T/C,"dose: 12.5 mg/kg/injection, schedule: Q01DX009 (ip), vehicle: water",110 % of control
same,T/C,"dose: 25.0 mg/kg/injection, schedule: Q01DX009 (ip), vehicle: water",101 % of control
same,T/C,"dose: 25.0 mg/kg/injection, schedule: Q04DX003 (ip), vehicle: water",101 % of control
same,T/C,"dose: 50.0 mg/kg/injection, schedule: Q01DX009 (ip), vehicle: water",95 % of control
same,T/C,"dose: 50.0 mg/kg/injection, schedule: Q04DX003 (ip), vehicle: water",100 % of control
same,T/C,"dose: 100.0 mg/kg/injection, schedule: Q01DX009 (ip), vehicle: water",110 % of control
same,T/C,"dose: 100.0 mg/kg/injection, schedule: Q04DX003 (ip), vehicle: water",111 % of control
O=C1C(=C(C(F)(F)F)C(F)(F)F)C2CCC1C2 (configuration not stated),T/C,"dose: 6.25 mg/kg/injection, schedule: Q04DX003 (ip), vehicle: saline with Tween-80",110 % of control
same,T/C,"dose: 12.5 mg/kg/injection, schedule: Q04DX003 (ip), vehicle: saline with Tween-80",100 % of control
same,T/C,[13],90 % of control
Oc1cccnc1CN1CCCCC1,T/C,"dose: 6.25 mg/kg/injection, schedule: Q01DX009 (ip), vehicle: saline",103 % of control
same,T/C,[7],111 % of control
same,T/C,[8],107 % of control
same,T/C,"dose: 50.0 mg/kg/injection, schedule: Q01DX009 (ip), vehicle: saline",88 % of control
COC(=O)c1cc(=O)nc(NN=C(C)C)s1,T/C,"dose: 50.0 mg/kg/injection, schedule: Q01DX005 (ip), vehicle: saline with Tween-80",91 % of control
same,T/C,"dose: 100.0 mg/kg/injection, schedule: Q01DX005 (ip), vehicle: saline with Tween-80",100 % of control
O=C(N/N=C/C=C/c1ccccc1)[C@H](O)[C@@H](O)C(=O)N/N=C/C=C/c1ccccc1,T/C,[1],88 % of control
same,T/C,[3],96 % of control
same,T/C,[5],92 % of control
c1ccc(-n2nc3c(c2-c2ccc(OCCN4CCCC4)cc2)CCCc2ccccc2-3)cc1,T/C,[13],120 % of control
same,T/C,"dose: 50.0 mg/kg/injection, schedule: Q04DX003 (ip), vehicle: saline with Tween-80",120 % of control
same,T/C,[11],100 % of control
CC(C)(C)c1ccc(OCCCOc2ccc(C(=O)O)cc2)cc1,T/C,"dose: 12.5 mg/kg/injection, schedule: Q04DX003 (ip), vehicle: saline sonified",95 % of control
same,T/C,"dose: 25.0 mg/kg/injection, schedule: Q04DX003 (ip), vehicle: saline sonified",95 % of control
same,T/C,"dose: 50.0 mg/kg/injection, schedule: Q04DX003 (ip), vehicle: saline sonified",91 % of control
ClC1=C(Cl)C2(Cl)C(Br)C(Br)C1(Cl)C2(Cl)Cl (configuration not stated),T/C,"dose: 25.0 mg/kg/injection, schedule: Q04DX003 (ip), vehicle: other",118 % of control
same,T/C,"dose: 50.0 mg/kg/injection, schedule: Q04DX003 (ip), vehicle: other",109 % of control
same,T/C,[12],90 % of control
same,T/C,"dose: 100.0 mg/kg/injection, schedule: Q04DX003 (ip), vehicle: other",100 % of control and 104 % of control
same,T/C,"dose: 200.0 mg/kg/injection, schedule: Q01DX009 (ip), vehicle: saline with Tween-80",100 % of control
same,T/C,[4],90 % of control
same,T/C,"dose: 400.0 mg/kg/injection, schedule: Q01DX009 (ip), vehicle: saline with Tween-80",110 % of control
same,T/C,"dose: 400.0 mg/kg/injection, schedule: Q04DX003 (ip), vehicle: other",100 % of control
